# Measurements: paper PMC4794675, “Generation and Characterization of Monoclonal Antibodies against a Cyclic Variant of Hepatitis C Virus E2 Epitope 412-422” (Journal of Virology, 2016)
# Bridge positions count the residues as written; N and C are the ends. Peptide text beside a SMILES is read from it.
# Tested on: Fab C2
# Experiment: SPR epitope mapping: binding of epitope I peptide variants to immobilized Fab C2
# Parameters: species or system mouse; Ka, binding to Fab C2: unit not given here
# Conditions: for Ka, binding to Fab C2 / Kd, binding to Fab C2: Fab C2 immobilized on CM5 chip, 25°C; for Kd: read-out: KD, binding to Fab C2, Fab C2 immobilized on CM5 chip, peptides 125 nM to 5 μM, HBS buffer, 25°C, NB = no binding
# Experimental: All SPR analyses were performed on a Biacore 3000 instrument from GE Healthcare, using CM5 sensor chips and the HBS buffer certified for use with this instrument (20 mM HEPES, 0.15 M NaCl, pH 7.2, 0.005% polysorbate 20), at 25°C. Immobilization was carried out by means of the canonical amine-coupling chemistry using the surface immobilization wizard procedure operating at 5 μl/min. Channels were activated with a mixture of 1-ethyl-3-(3-dimethylaminopropyl)-carbodiimide and N-hydroxysuccinimide for 7 min; then, the ligand, which had been appropriately diluted in the preselected sodium acetate buffer, was coupled until a typical level of 500 to 600 response units (RU) was achieved. The remaining active ester groups were blocked with 1 M ethanolamine HCl, pH 8.5. […] The same procedure was applied to prepare an sE2-functionalized sensor chip. An IgG1 isotype-matched antibody was used as a negative control at a concentration of 5.0 μM. […] An underivatized surface was prepared on every sensor chip and used as a blank control. All analyses were carried out at a flow rate of 20 μl/min, and a constant volume of 60 μl of protein or peptide solution appropriately diluted in the HBS running buffer was injected.
# For every analysis, experimental sensorgrams were aligned, the blank signal was subtracted, and the sensorgrams were overlapped. All mathematical manipulations and fitting of the data were performed using BIAevaluation (version 4.1) software (GE Healthcare).
# To further investigate which peptide residues were mostly involved in the binding with the antibodies, we designed and prepared a panel of alanine-mutated cyclic peptides (Table 4). […] All peptides were tested at concentrations ranging from 125 nM to 5 μM.
SMILES,"Ka, binding to Fab C2 (peptides 125 nM to 5 μM)","Kd, binding to Fab C2 (peptides 125 nM to 5 μM) [M⁻¹ s⁻¹]","affinity/binding to Fab C2 relative to wild type (Fab C2 immobilized, peptides 125 nM to 5 μM)",Kd [µM]
CC[C@H](C)[C@@H]1NC(=O)[C@H](CC(C)C)NC(=O)[C@H](CCC(N)=O)NC(=O)[C@@H](NC(=O)[C@H](CCCCN)NC(=O)[C@H](CCCCN)NC(C)=O)CSSC[C@@H](C(N)=O)NC(=O)[C@H](C)NC(=O)[C@H](C)NC(=O)[C@H](C)NC(=O)[C@H](CO)NC(=O)CNC(=O)[C@H](CC(N)=O)NC(=O)[C@H]([C@@H](C)O)NC(=O)[C@H](CC(N)=O)NC1=O [C-epitope I mutant IV] (Ac-KKCQLINTNGSAAAC-NH2; disulfide 3-15; N-terminus and C-terminus assumed),0,0,abolished,> 5
CC[C@H](C)[C@@H]1NC(=O)[C@H](Cc2c[nH]cn2)NC(=O)[C@H](Cc2c[nH]c3ccccc23)NC(=O)[C@H](CO)NC(=O)CNC(=O)[C@H](CC(N)=O)NC(=O)[C@H]([C@@H](C)O)NC(=O)[C@H](CC(N)=O)NC(=O)[C@H](C)NC(=O)[C@H](C)NC(=O)[C@H](C)NC(=O)[C@@H](NC(=O)[C@H](CCCCN)NC(=O)[C@H](CCCCN)NC(C)=O)CSSC[C@@H](C(N)=O)NC1=O [C-epitope I mutant I] (Ac-KKCAAANTNGSWHIC-NH2; disulfide 3-15; N-terminus and C-terminus assumed),1.22e+06 s⁻¹,0.553,–,–
CC[C@H](C)[C@@H]1NC(=O)[C@H](Cc2c[nH]cn2)NC(=O)[C@H](Cc2c[nH]c3ccccc23)NC(=O)[C@H](CCC(=O)O)NC(=O)[C@H](CCC(=O)O)NC(=O)[C@H](CC(N)=O)NC(=O)[C@H]([C@@H](C)O)NC(=O)[C@H](CC(N)=O)NC(=O)[C@H]([C@@H](C)CC)NC(=O)[C@H](CC(C)C)NC(=O)[C@H](CCC(N)=O)NC(=O)[C@@H](NC(=O)[C@H](CCCCN)NC(=O)[C@H](CCCCN)NC(C)=O)CSSC[C@@H](C(N)=O)NC1=O [C-epitope I mutant III] (Ac-KKCQLINTNEEWHIC-NH2; disulfide 3-15; N-terminus and C-terminus assumed),16200 s⁻¹,0.0754,–,–
CC[C@H](C)[C@H](NC(=O)[C@H](Cc1c[nH]cn1)NC(=O)[C@H](Cc1c[nH]c2ccccc12)NC(=O)[C@H](CO)NC(=O)CNC(=O)[C@H](CC(N)=O)NC(=O)[C@@H](NC(=O)[C@H](CC(N)=O)NC(=O)[C@@H](NC(=O)[C@H](CC(C)C)NC(=O)[C@H](CCC(N)=O)NC(=O)[C@H](CSC)NC(=O)[C@H](CCCCN)NC(=O)[C@H](CCCCN)NC(C)=O)[C@@H](C)CC)[C@@H](C)O)C(=O)N[C@@H](CSC)C(N)=O [L-epitope I] (Ac-KKC(Me)QLINTNGSWHIC(Me)-NH2; N-terminus and C-terminus assumed),0,0,–,> 5
CC[C@H](C)[C@@H]1NC(=O)[C@H](CC(C)C)NC(=O)[C@H](CCC(N)=O)NC(=O)[C@@H](NC(=O)[C@H](CCCCN)NC(=O)[C@H](CCCCN)NC(C)=O)CSSC[C@@H](C(N)=O)NC(=O)[C@H]([C@@H](C)CC)NC(=O)[C@H](Cc2c[nH]cn2)NC(=O)[C@H](Cc2c[nH]c3ccccc23)NC(=O)[C@H](CO)NC(=O)CNC(=O)[C@H](C)NC(=O)[C@H](C)NC(=O)[C@H](C)NC1=O [C-epitope I mutant II] (Ac-KKCQLIAAAGSWHIC-NH2; disulfide 3-15; N-terminus and C-terminus assumed),3200 s⁻¹,4.73e-05,–,–
